Experimental data taken from PubChem BioAssay (NCI).
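Five concentrations, 48 hours, 96-well plates. The concentration for full growth arrest is given as TGI.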

Assays:
Assay in all cases: inhibition of tumour cell growth, NCI panel, 48 h
[1] = system: SN12C renal
[2] = system: SNB-19 CNS
[3] = system: RXF 393 renal
[4] = system: COLO 205 colon
[5] = system: OVCAR-5 ovarian
[6] = system: IGROV1 ovarian
[7] = system: K-562 leukemia
[8] = system: MALME-3M melanoma
[9] = system: SF-539 CNS
[10] = system: NCI-H460 lung
[11] = system: EKVX NSCLC
[12] = system: LOX IMVI melanoma
[13] = system: NCI-H23 lung
[14] = system: CAKI-1 renal
[15] = system: PC-3 prostate
[16] = system: ACHN renal
[17] = system: A549 NSCLC
[18] = system: MOLT-4 leukemia
[19] = system: UACC-257 melanoma
[20] = system: U251 CNS
[21] = system: MDA-MB-231 breast
[22] = system: KM12 colon
[23] = system: NCI/ADR-RES ovarian
[24] = system: HCC-2998 colon
[25] = system: SK-MEL-2 melanoma
[26] = system: OVCAR-4 ovarian
[27] = system: UACC-62 melanoma
[28] = system: OVCAR-3 ovarian
[29] = system: 786-0 renal
[30] = system: HL-60(TB) leukemia
[31] = system: SK-MEL-28 melanoma
[32] = system: RPMI-8226 leukemia
[33] = system: SF-295 CNS
[34] = system: SW-620 colon
[35] = system: CCRF-CEM leukemia
[36] = system: T-47D breast
[37] = system: HCT-116 colon
[38] = system: HCT-15 colon
[39] = system: HOP-62 NSCLC
[40] = system: HOP-92 NSCLC
[41] = system: DU-145 prostate
[42] = system: MDA-N
[43] = system: SR leukemia
[44] = system: SK-OV-3 ovarian
[45] = system: SNB-75 CNS
[46] = system: NCI-H226 lung
[47] = system: SK-MEL-5 melanoma
[48] = system: M14 melanoma
[49] = system: BT-549 breast
[50] = system: A498 renal
[51] = system: MDA-MB-435
[52] = system: TK-10 renal
[53] = system: OVCAR-8 ovarian
[54] = system: UO-31 renal
[55] = system: SF-268 CNS
[56] = system: MCF7 breast
[57] = system: HT29 colon
[58] = system: HS 578T breast
[59] = system: NCI-H522 lung

`CC1(C)C(=O)C2(OS(=O)(=O)C(F)(F)F)CCC1C2` (stereo not given) was tested, and the TGI [1] was > 100 µM, the TGI [2] was > 100 µM and the TGI [3] was > 100 µM. For the same molecule, the TGI [4] was > 100 µM, the TGI [5] was > 100 µM and the TGI [6] was > 100 µM. The TGI [7] was > 100 µM, the TGI [8] was > 100 µM and the TGI [9] was > 100 µM. The TGI [10] was > 100 µM, the TGI [11] was > 100 µM and the TGI [12] was > 100 µM. For the same molecule, the TGI [13] was > 100 µM, the TGI [14] was > 100 µM and the TGI [15] was > 100 µM. For the same molecule, the TGI [16] was > 100 µM, the TGI [17] was > 100 µM and the TGI [18] was > 100 µM. The TGI [19] was > 100 µM, the TGI [20] was > 100 µM and the TGI [21] was > 100 µM. For the same molecule, the TGI [22] was > 100 µM, the TGI [23] was > 100 µM and the TGI [24] was > 100 µM. For the same molecule, the TGI [25] was > 100 µM, the TGI [26] was > 100 µM and the TGI [27] was > 100 µM. For the same molecule, the TGI [28] was > 100 µM, the TGI [29] was > 100 µM and the TGI [30] was > 100 µM. For the same molecule, the TGI [31] was > 100 µM, the TGI [32] was > 100 µM and the TGI [33] was > 100 µM. The TGI [34] was > 100 µM, the TGI [35] was > 100 µM and the TGI [36] was > 100 µM. The TGI [37] was > 100 µM, the TGI [38] was > 100 µM and the TGI [39] was > 100 µM. The TGI [40] was > 100 µM, the TGI [41] was > 100 µM and the TGI [42] was > 100 µM. For the same molecule, the TGI [43] was > 100 µM, the TGI [44] was > 100 µM and the TGI [45] was > 100 µM. For the same molecule, the TGI [46] was > 100 µM, the TGI [47] was > 100 µM and the TGI [48] was > 100 µM. The TGI [49] was > 100 µM, the TGI [50] was > 100 µM and the TGI [51] was > 100 µM. For the same molecule, the TGI [52] was > 100 µM, the TGI [53] was > 100 µM and the TGI [54] was > 100 µM. For the same molecule, the TGI [55] was > 100 µM, the TGI [56] was > 100 µM and the TGI [57] was > 100 µM. For the same molecule, the TGI [58] was > 100 µM.

With `CCOC(=O)C1(C(=O)OCC)CC(=O)[C@@]2(C1)OCC[C@H]1OC(=O)C[C@H]12` the TGI [1] was > 100 µM, the TGI [2] was > 100 µM and the TGI [4] was > 100 µM. The TGI [5] was > 100 µM, the TGI [6] was > 100 µM and the TGI [59] was > 100 µM. For the same molecule, the TGI [8] was > 100 µM, the TGI [9] was > 100 µM and the TGI [10] was > 100 µM. The TGI [11] was > 100 µM, the TGI [12] was > 100 µM and the TGI [13] was > 100 µM. The TGI [14] was > 100 µM, the TGI [15] was > 100 µM and the TGI [16] was > 100 µM. The TGI [17] was > 100 µM, the TGI [18] was > 100 µM and the TGI [19] was > 100 µM. For the same molecule, the TGI [20] was > 100 µM, the TGI [21] was > 100 µM and the TGI [22] was > 100 µM. For the same molecule, the TGI [23] was > 100 µM, the TGI [24] was > 100 µM and the TGI [25] was > 100 µM. For the same molecule, the TGI [26] was > 100 µM, the TGI [27] was > 100 µM and the TGI [28] was > 100 µM. The TGI [29] was > 100 µM, the TGI [30] was > 100 µM and the TGI [31] was > 100 µM. The TGI [32] was > 100 µM, the TGI [33] was > 100 µM and the TGI [34] was > 100 µM. For the same molecule, the TGI [35] was > 100 µM, the TGI [36] was > 100 µM and the TGI [37] was > 100 µM. The TGI [38] was > 100 µM, the TGI [39] was > 100 µM and the TGI [40] was > 100 µM. For the same molecule, the TGI [41] was > 100 µM, the TGI [42] was > 100 µM and the TGI [43] was > 100 µM. The TGI [45] was > 100 µM, the TGI [47] was > 100 µM and the TGI [48] was > 100 µM. The TGI [49] was > 100 µM, the TGI [50] was > 100 µM and the TGI [51] was > 100 µM. For the same molecule, the TGI [52] was > 100 µM, the TGI [53] was > 100 µM and the TGI [54] was > 100 µM. For the same molecule, the TGI [55] was > 100 µM, the TGI [56] was > 100 µM and the TGI [57] was > 100 µM. The TGI [58] was > 100 µM.

`CCOC(=O)/C=C(\N=P(c1ccccc1)(c1ccccc1)c1ccccc1)C(F)(F)C(F)(F)C(F)(F)C(F)(F)C(F)(F)F` was tested, and the TGI [1] was > 100 µM, the TGI [2] was > 100 µM and the TGI [3] was > 100 µM. For the same molecule, the TGI [4] was > 100 µM, the TGI [5] was > 100 µM and the TGI [6] was > 100 µM. The TGI [7] was > 100 µM, the TGI [8] was > 100 µM and the TGI [9] was > 100 µM. For the same molecule, the TGI [10] was > 100 µM, the TGI [12] was > 100 µM and the TGI [13] was > 100 µM. For the same molecule, the TGI [14] was > 100 µM, the TGI [15] was > 100 µM and the TGI [16] was > 100 µM. The TGI [17] was > 100 µM, the TGI [18] was > 100 µM and the TGI [19] was > 100 µM. For the same molecule, the TGI [20] was > 100 µM, the TGI [21] was > 100 µM and the TGI [22] was > 100 µM. The TGI [23] was > 100 µM, the TGI [24] was > 100 µM and the TGI [25] was > 100 µM. The TGI [26] was > 100 µM, the TGI [27] was > 100 µM and the TGI [28] was > 100 µM. For the same molecule, the TGI [29] was > 100 µM, the TGI [30] was > 100 µM and the TGI [31] was > 100 µM. For the same molecule, the TGI [32] was > 100 µM, the TGI [33] was > 100 µM and the TGI [34] was > 100 µM. The TGI [35] was > 100 µM, the TGI [36] was > 100 µM and the TGI [37] was > 100 µM. The TGI [38] was > 100 µM, the TGI [39] was > 100 µM and the TGI [40] was > 100 µM. For the same molecule, the TGI [41] was > 100 µM, the TGI [42] was > 100 µM and the TGI [43] was > 100 µM. For the same molecule, the TGI [44] was > 100 µM, the TGI [45] was > 100 µM and the TGI [47] was > 100 µM. For the same molecule, the TGI [48] was > 100 µM, the TGI [49] was > 100 µM and the TGI [50] was 72.4 µM. For the same molecule, the TGI [51] was > 100 µM, the TGI [52] was > 100 µM and the TGI [54] was > 100 µM. The TGI [55] was > 100 µM, the TGI [56] was > 100 µM and the TGI [57] was > 100 µM. The TGI [58] was > 100 µM.

With `CC12CC3(O)OC(O1)C1(COC(=O)c4ccccc4)C3CC21OC1OC(CO)C(O)C(O)C1O` (stereo not given) the TGI [1] was > 100 µM, the TGI [2] was > 100 µM and the TGI [3] was > 100 µM. The TGI [4] was > 100 µM, the TGI [5] was > 100 µM and the TGI [6] was > 100 µM. The TGI [59] was > 100 µM, the TGI [8] was > 100 µM and the TGI [9] was > 100 µM. The TGI [10] was > 100 µM, the TGI [11] was > 100 µM and the TGI [12] was > 100 µM. For the same molecule, the TGI [13] was > 100 µM, the TGI [14] was > 100 µM and the TGI [15] was > 100 µM. For the same molecule, the TGI [16] was > 100 µM, the TGI [17] was > 100 µM and the TGI [18] was > 100 µM. The TGI [19] was > 100 µM, the TGI [20] was > 100 µM and the TGI [21] was > 100 µM. For the same molecule, the TGI [22] was > 100 µM, the TGI [23] was > 100 µM and the TGI [24] was > 100 µM. For the same molecule, the TGI [25] was > 100 µM, the TGI [26] was > 100 µM and the TGI [27] was > 100 µM. For the same molecule, the TGI [28] was > 100 µM, the TGI [29] was > 100 µM and the TGI [30] was > 100 µM. The TGI [31] was > 100 µM, the TGI [32] was > 100 µM and the TGI [33] was > 100 µM. The TGI [34] was > 100 µM, the TGI [35] was > 100 µM and the TGI [36] was > 100 µM. The TGI [37] was > 100 µM, the TGI [38] was > 100 µM and the TGI [39] was > 100 µM. The TGI [40] was > 100 µM, the TGI [41] was > 100 µM and the TGI [42] was > 100 µM. For the same molecule, the TGI [43] was > 100 µM, the TGI [44] was > 100 µM and the TGI [46] was > 100 µM. The TGI [47] was > 100 µM, the TGI [48] was > 100 µM and the TGI [49] was > 100 µM. The TGI [50] was > 100 µM, the TGI [51] was > 100 µM and the TGI [52] was > 100 µM. For the same molecule, the TGI [53] was > 100 µM, the TGI [54] was > 100 µM and the TGI [55] was > 100 µM. The TGI [56] was > 100 µM, the TGI [57] was > 100 µM and the TGI [58] was > 100 µM.
